In brackets after ≈: the same amount, converted by molar mass. Where two headings read alike, the source gives them in different places.
Legend:
THP-1 cells = assay: Mammalian cell viability counter-screen (CellTiter-Blue); assay type: cell-based, human; settings: Homo sapiens, 48 h, read-out: HTS IC50 mammalian toxicity
Experimental: The human monocytic THP-1 cell line (ATCC® TIB-202) used for mammalian cytotoxicity evaluation was routinely cultured in roller bottles. Growth media consisted of RPMI 1640 supplemented with 10% FBS and 2 mM L-glutamine. Cells were maintained at 37 °C with 95% humidity in 5% CO2 in a shaking incubator.
All compounds selected for secondary IC50 screen were tested in parallel for mammalian cell viability using the CellTiter-Blue® Cell Viability Assay. THP1 cells were removed from culture and plated at 1 × 10^4 cells/well (40 µl) into 384-well assay ready plates and incubated at 37 °C, 5% CO2 for 48 h at 95% humidity. After the addition of CellTiter-Blue Viability reagent (8 µl of a 1:6 dilution) the assay plates were incubated for a further 2 h before fluorescence detected using a PerkinElmer EnVision™ plate reader.

[1] = tested on: Wolbachia in C6/36 (wAlbB) cells; assay: Confirmatory re-assessment in the insect cell screen (cell assay EC50); assay type: cell-based, Wolbachia pipientis wAlbB (in Aedes albopictus C6/36 cells); settings: for EC50: Wolbachia, C6/36, insect cell screen, re-sourced or re-synthesised samples
From the text: To further validate the hit molecules from these 9 clusters, samples were sourced either from the AstraZeneca compound inventory or through re-synthesis. All 18 samples were characterised by nuclear magnetic resonance (NMR) and mass spectroscopy to confirm their chemical structures and by HPLC/LCMS to establish their purity (Supplementary Table 5 and Supplementary Data 1). These samples were also subject to confirmatory re-assessment in both the insect cell screen and Mf assays for anti-Wolbachia potency alongside confirmation of DMPK properties (LogD7.4, aqueous solubility in pH 7.4 PBS, human microsomal turnover, rat hepatocyte turnover and human plasma protein binding) (Fig. 4, Supplementary Figure 1 and Supplementary Table 4).
On day 0, a single cryovial was recovered and the cells washed before being transferred to a T225 cm^2 flask. After a 7-day recovery Wolbachia infection level (quality control (QC)) was checked by SYTO®11 DNA staining of both the host cell nuclei and intracellular Wolbachia. The end-point read out from the Operetta® high content imaging system (Perkin Elmer) was the percentage of cells infected with Wolbachia. This was obtained from cytoplasm texture analysis by the associated Harmony® software. Cells with a >50% of the population infected with Wolbachia were classed as having a good Wolbachia level and therefore used for screening through addition of 2000 cells per well into assay ready 384-well plates containing the test compounds. […] Each plate included on-board controls; vehicle/DMSO (total/maximum Wolbachia signal) or doxycycline 5 µM (null/minimum Wolbachia signal), resulting in single shot screening of 352 compounds per plate for the primary screen. […] QC plates were also created including full columns of the following controls; DMSO (total/max), 5 μM doxycycline (null/min), as well as 50 nM doxycycline (reference/medium Wolbachia signal). Daily batches contained ~150 compound plates in addition to the QC plates. Each compound plate was foil sealed before incubation for 7 days at 26 °C, 95% humidity and atmospheric air.

[2] = tested on: Wolbachia within Brugia malayi Mf; assay: B. malayi microfilarial (Mf) in vitro anti-Wolbachia assay (wsp:gst qPCR); assay type: cell-based
Experimental: The Mf were obtained by peritoneal lavage, using a catheter, of gerbils (Meriones unguiculatus) harbouring a patent infection of B. malayi. Mf were purified using a PD-10 desalting column (Fisher), centrifuged (311 RCF for 5 min at room temperature) before the addition of 8000 Mf/well of a 96-well plate (100 µl per well) in complete media consisting of RPMI supplemented with 10% FBS, 1% penicillin streptomycin and 1% amphotericin B. […] Each plate contained doxycycline (5 µM) and DMSO controls. After incubation at 37 °C for 6 days in 5% CO2, visual assessment of Mf motility was performed and scored from 0 to 4 per well (where 0 = no movement and 4 = highly motile). DNA extraction per sample was performed using the QIAmp DNA Mini Kit before quantitative PCR was performed to obtain the ratio of Wolbachia Surface Protein gene copy number (wsp) to Glutathione S-Transferase gene copy number (gst)[36]. The DNA was amplified using the primers as indicated in Supplementary Table 6.
The wsp:gst ratio data allowed for normalisation of the Wolbachia level to the Mf biomass for each well. The change in wsp:gst for each compound compared to the DMSO control was calculated before normalisation to the onboard doxycycline control to allow for inter-assay comparison.

Rat hepatocyte clearance = assay type: in vitro ADME
From the text: (§1) The DMPK data used for triaging compounds, including LogD7.4, aqueous solubility, plasma protein binding, microsome and hepatocyte clearance measurements, were generated using the standard AstraZeneca UK high-throughput platform[37],[38].

LogD7.4 = assay type: physicochemical; settings: pH 7.4
From the text: as §1

[3] = Aqueous solubility in pH 7.4 PBS; assay type: physicochemical; settings: for solubility: PBS pH 7.4, aqueous buffer, pH 7.4 PBS, read-out: Aqueous solubility in pH7.4 PBS
From the text: as §1

[4] = Brugia malayi, 144 h, B. malayi Mf, 6 days, read-out: Mf EC50
[5] = category bounds in the picture of Fig. 4, read-out: Mf EC50 (category given in Fig. 4)

With `Cc1nccc(N2CCC(C(=O)N(C)CCN(C)S(=O)(=O)c3ccc(Br)cc3)CC2)n1` [1A, N-(2-((4-bromo-N-methylphenyl)sulfonamido)ethyl)-N-methyl-1-(2-methylpyrimidin-4-yl)piperidine-4-carboxamide] the IC50 (THP-1 cells) was > 30.6 µM, the EC50 [1] was 0.192 µM and the EC50 [2, 4] was ~0.161 µM. For the same molecule, the EC50 [2, 5] was < 0.2 µM, the “Rat hepatocytes CLint” value (Rat hepatocyte clearance) was 31.1 µl/min/1x106 cells and the logD (LogD7.4) was 2.6. The solubility [3] was 663 µM (≈ 338 µg/mL).
For `COc1ccc(CC(=O)Nc2[nH]nc(C)c2-c2ccccc2)c(Cl)c1` [2A, 2-(2-chloro-4-methoxyphenyl)-N-(3-methyl-4-phenyl-1H-pyrazol-5-yl)acetamide], the IC50 (THP-1 cells) was > 30.6 µM, the EC50 [1] was 0.242 µM and the EC50 [2, 4] was 0.164 µM. For the same molecule, the EC50 [2, 5] was < 0.2 µM, the “Rat hepatocytes CLint” value (Rat hepatocyte clearance) was 262.8 µl/min/1x106 cells and the logD (LogD7.4) was 3.1. For the same molecule, the solubility [3] was 71 µM (≈ 25.3 µg/mL).
In the case of `CC1COCCN1c1cc(OCc2ccccc2)nc(-c2nccn2C)n1` (stereo not shown) [3A, 4-(6-(benzyloxy)-2-(1-methyl-1H-imidazol-2-yl)pyrimidin-4-yl)-3-methylmorpholine], the IC50 (THP-1 cells) is reported as > 30.6 µM, the EC50 [1] is reported as 0.662 µM and the EC50 [2, 4] is reported as ~0.183 µM. For the same molecule, the EC50 [2, 5] was < 0.2 µM, the “Rat hepatocytes CLint” value (Rat hepatocyte clearance) was 147.0 µl/min/1x106 cells and the logD (LogD7.4) was 3.3. For the same molecule, the solubility [3] was 538 µM (≈ 197 µg/mL).
For `CCc1ccc(CN2CCCC2c2nc(C(=O)N(C)C)cs2)s1` (stereo not shown) [4A, 2-(1-((5-ethylthiophen-2-yl)methyl)pyrrolidin-2-yl)-N,N-dimethylthiazole-4-carboxamide], the IC50 (THP-1 cells) was > 30.6 µM, the “Insect cell screen activity (in words)” value [1] was “strong” and the EC50 [1] was 0.041 µM. The “Mf in vitro potency (in words)” value [2] was “good”, the EC50 [2, 4] was ~0.219 µM and the EC50 [2, 5] was 0.2 to 1 µM. The “Rat hepatocytes CLint” value (Rat hepatocyte clearance) was > 300 µl/min/1x106 cells, the logD (LogD7.4) was 3.2 and the “Solubility (in words)” value [3] was “excellent”. The solubility [3] was > 1000 µM.
With `Cc1nc(C(=O)NC(C)c2ccc(F)cc2)c(NC(=O)Cc2ccccc2)[nH]1` (stereo not shown) [5A, N-(1-(4-fluorophenyl)ethyl)-2-methyl-5-(2-phenylacetamido)-1H-imidazole-4-carboxamide] the IC50 (THP-1 cells) was > 30.6 µM, the EC50 [1] was 0.296 µM and the “Mf in vitro potency (in words)” value [2] was “comparatively good”. The EC50 [2, 4] was ~0.271 µM, the EC50 [2, 5] was 0.2 to 1 µM and the “Rat hepatocytes CLint” value (Rat hepatocyte clearance) was 8.0 µl/min/1x106 cells. For the same molecule, the logD (LogD7.4) was 3.5, the “Solubility (in words)” value [3] was “lower” and the solubility [3] was 12 µM (≈ 4.57 µg/mL).
